Measured values taken from patent US12285464B2, “Therapeutic targets involved in the progression of nonalcoholic steatohepatitis (NASH)” (The Trustees of Columbia University in the City of New York, priority 2016, dated 2025).
Entries after “also recorded” stand apart in the source; their conditions may differ.

Columns and labels:
PCSK9 = details: modified stable siRNA, clinical trials; cited from earlier work
TAZ [1] = assay: shTaz in the MCD (methionine/choline-deficient) diet model; format: in vivo, mice
From the text: Thus, in separate models of NASH, hepatic TAZ silencing improved key liver parameters related to inflammation, fibrosis, and cell death without affecting metabolic parameters or steatosis.
(§1) Male wild-type mice C57BL/6J (#000664, 8-10 weeks/old) and MC4R-negative loxTB Mc4r mice (#006414, 6 weeks/old), referred to here as Mc4r^-/- mice, were obtained from Jackson Laboratory (Bar Harbor, ME) and were allowed to adapt to housing in the Columbia University Medical Center Institute of Comparative Medicine for 1 week prior to random assignment to experimental cohorts. The mice were then fed the following diets for the times indicated in the figure legends: (a) chow diet (Picolab rodent diet 20, #5053); (b) “fast-food” (FF). diet (TestDiet 1810060): high-fat diet with drinking water containing 42 g/L glucose and fructose (55%/45%, w/w); or (c) fructose-palmitate-cholesterol (“FPC”) diet (Teklad, TD.140154): similar to FF diet but with 1.25% added cholesterol and with palmitic acid, anhydrous milk fat, and Primex as the sources of fat and with a ˜60% decrease in vitamin E and a ˜35% decrease in choline compared with typical mouse diets. The detailed composition of these diets appear in Tables 1 and 2. For several experiments, groups of mice were placed on a methionine-choline-deficient diet (Teklad, TD. 90262) for 8 weeks, as described (Dixon et al., 2012). Adeno-associated virus (2×10^11 genome copy/mouse) was delivered by tail vein injection either 1 week prior to diet initiation or after 8 weeks of the FPC diet. Animals were housed in standard cages at 22° C. in a 12-12-h light-dark cycle. All animal experiments were performed in accordance with institutional guidelines and regulations and approved by the Institutional Animal Care and Use Committee at Columbia University.

TAZ [2] = assay: TAZ silencing after development of steatosis: AAV8-shTaz at week 8 of 16 weeks of FPC diet; format: in vivo, mice; details: shTaz at week 8, read at 16 weeks of FPC diet
From the text: To investigate the role of TAZ specifically in steatosis-to-NASH conversion, mice were first fed the FPC diet for 8 weeks and then injected with AA8-shTaz or control virus, followed by an additional 8 weeks on the diet. Note that 8 weeks of FPC diet caused steatosis but no appreciable inflammation or fibrosis (FIG. 6A).
as §1

TAZ [3] = assay: TAZ silencing with AAV8-shTaz in FPC-fed C57BL/6J mice, FPC diet for 16 weeks; format: in vivo; details: FPC diet 16 weeks
Procedure: (§2) To study TAZ function in NASH development, FPC mice were treated with AAV8-shTaz vs. AAV8-control RNA. […] Mouse body weight, liver:body weight ratio, fasting blood glucose, plasma insulin, and plasma cholesterol were similar in the Taz shRNA and control groups.
The following antibodies were used for immunoblots: GAPDH (#3683), β-actin (#5125), CHOP (#5554), TAZ (#8418), p-eIF2α (#3398), eIF2α (#5324), Lamin A/C (#4777) from Cell Signaling; p-TAZ (sc-17610) and Col1a1 (sc-8784) from Santa Cruz; Ihh (ab39634) from Abcam; and Timp1 (AF980) from R & D. The following antibodies were using for immunostaining of liver: α-SMA (ACTA2) (C6198, F3777) and TAZ (HPA007415) from Sigma; F4/80 (MCA497GA) from AbD Serotec; Ly6g (#127601) from Biolegend; Ly6b (MCA771G) from Bio-Rad; OPN (AF808) from R & D; 4-hydroxynonenal (4-HNE) (AB5605) from Millipore; and HNF4α (sc-6556) from. Santa Cruz. The following plasma assay kits were used in this study: insulin ELISA (#90080) from. Crystal Chem; MCP1 ELISA (#88-7391-22) from eBiosciences; cholesterol (#439-17501) and triglyceride (#465-09791, #461-09891) from Wako; and ALT (#006A-CR) and AST (#004A-CR) from BQ Kits, Inc. AAV8-shRNA targeting murine Taz was made by annealing complementary oligonucleotides (5′-CACCAcagcegaatctcgcaatgaatCTCGAGATTCATTGCGAG ATTCGGCTG-3′) (SEQ ID NO:1), which were then ligated into the pAAV-RSV-GFP-H1 vector, as described previously (Lisowski et al., 2014). The resultant constructs were amplified by the Salk Institute Gene Transfer, Targeting, and Therapeutics Core.
as §1
Fasting blood glucose was measured using a glucose meter (One Touch Ultra, Life-scan) in mice that were fasted for 4-5 h, with free access to water. Complete blood counts were obtained with the FORCYTE Veterinary Hematology Analyzer (Oxford Science, Inc.). Total plasma triglyceride and cholesterol were assayed using a commercially available kit from Wako. For insulin, MCP1, AST, ALT, TC, TG are measured following kit instruction by using plasma.
Formalin-fixed, paraffin-embedded liver sections were stained with hematoxylin and eosin (H&E) and evaluated for severity of NAFLD by a trained hepatopathologist blinded to the clinical diagnosis, αaccording to criteria described by Brunt et al. (Kleiner et al., 2005; Liang et al., 2014). […]

TAZ [4] = assay: TAZ silencing with AAV8-shTaz in FPC-fed hyperphagic Mc4r-/- mice, 16 weeks; format: in vivo; details: FPC diet 16 wks
Procedure: as §2, §1
Formalin-fixed, paraffin-embedded liver sections were stained with hematoxylin and eosin (H&E) and evaluated for severity of NAFLD by a trained hepatopathologist blinded to the clinical diagnosis, αaccording to criteria described by Brunt et al. (Kleiner et al., 2005; Liang et al., 2014). Liver fibrosis was assessed by Picrosirius (Sirius) red (Polysciences, #24901) or by Masson's trichrome staining (Sigma, HT15), with aniline blue-positive areas quantified as a measure of collagen content in the trichrome-stained. sections. TUNEL staining was conducted using a kit from Roche (#12156792910). For immunofluorescence microscsopy, paraffin sections were rehydrated, subjected to antigen retrieval by placing in a pressure cooker for 10 mins in Target Retrieval Solution (Dako, S1699), and then blocked with serum. Sections were labeled with primary antibodies overnight, using a 1:150 dilution except for α-SMA and 4-HNE (1:200) and TAZ (1:400), followed by incubation with a fluorophore-conjugated secondary antibody for 1 h. The stained sections were mounted with DAPI-containing mounting medium (Life Technologies, P36935) and then viewed on an Olympus IX 70 fluorescence microscope. For filipin (Sigma, F9765) staining, frozen sections were fixed in 4% paraformaldehyde for 1 h at room temperature, then rinsed using glycine/PBS and stained 0.25 mg/ml filipin 2 h at room temperature. Fluorescence microscopic images were analyzed using ImageJ software. For immunohistochemistry, the deparaffinization, rehydration, and antigen retrieval processes were the same as with immunofluorescence staining. The slides were treated with 3% hydrogen peroxide for 10 min and then blocked with Serum-Free Protein Block (Dako, X0909) for 30 min. Sections were incubated with OPN, F4/80, or α-SMA primary antibody (1:100) overnight and then developed using DAB substrate kit (Cell Signaling, #8059) for OPN and F4/80,FITC-labeled anti-HRP secondary antibody for α-SMA.
Hydroxyproline liver content was measured as previously described (Bataller et al., 2003; Seki et al., 2009). […]

[5] = test system: primary murine hepatic stellate cells (HSCs); assay: Conditioned medium transfer from silenced AML12 hepatocytes to primary hepatic stellate cells; format: cell-based, mouse; details: CM from TAZ-silenced vs control hepatocytes, 72 h
From the text: To explore the possibility that TAZ-induced Ihh is secreted by hepatocytes and activates HSCs, an in vitro model using AML12 cells, a non-cancerous mouse hepatocyte cell line was utilized (Dumenco et al., 1995), along with primary murine HSCs. Consistent with the in vivo data, siTaz treatment of AML12 hepatocytes lowered cellular Ihh mRNA in the cells and Ihh protein in both the cells and media (FIGS. 8A-C). In the next experiments, conditioned medium (CM) from control or Taz-silenced AML12 cells was utilized, as well as medium not exposed to cells (non-CM), to primary murine hepatic stellate cells (HSCs). […] Finally, to make a more direct link between TAZ-induced Ihh in hepatocytes and activation of HSCs, Ihh was restored in siTaz-treated hepatocytes by Ihh transfection and then analyzed to determine whether this lessened the suppressive effect of CM from these cells on the expression of the fibrosis-related genes in HSCs. […]
(§3) AML12 mouse hepatocytes were purchased from ATCC (CRL-2254) and cultured in DMEM/F12 medium (Lifetechnologies, #11320) with 10% FBS (Gibco, #16140-071). […] For quantification of Ihh, hepatocyte conditioned medium was concentrated 10-fold by centrifugal filters (Millipore, Ultracel) and analyzed by an ELISA kit (LifeSpan Biosciences, F7953).

Taz [6] = assay: siTaz treatment of AML12 hepatocytes (Ihh mRNA, immunoblot, ELISA); format: cell-based, mouse
From the text: To explore the possibility that TAZ-induced Ihh is secreted by hepatocytes and activates HSCs, an in vitro model using AML12 cells, a non-cancerous mouse hepatocyte cell line was utilized (Dumenco et al., 1995), along with primary murine HSCs. Consistent with the in vivo data, siTaz treatment of AML12 hepatocytes lowered cellular Ihh mRNA in the cells and Ihh protein in both the cells and media (FIGS. 8A-C). In the next experiments, conditioned medium (CM) from control or Taz-silenced AML12 cells was utilized, as well as medium not exposed to cells (non-CM), to primary murine hepatic stellate cells (HSCs). […] Most importantly, CM from TAZ-silenced hepatocytes lowered the levels these mRNAs and protein compared to CM from shCon-treated hepatocytes (FIG. 8D). […] Finally, to make a more direct link between TAZ-induced Ihh in hepatocytes and activation of HSCs, Ihh was restored in siTaz-treated hepatocytes by Ihh transfection and then analyzed to determine whether this lessened the suppressive effect of CM from these cells on the expression of the fibrosis-related genes in HSCs. Transfection of TAZ-silenced hepatocytes with Ihh led to a level of Ihh in the CM that was similar to that in the CM of control hepatocytes (FIG. 8F—compare 1st and 4th bars). As before, the CM of TAZ-silenced hepatocytes suppressed Opn, Timp1 and Col1a1 mRNA in HSCs (FIG. 8G—compare 2nd and 4th bars), and the present results illustrate that restoration of Ihh in these TAZ-silenced cells rescued CM-induced HSC gene expression (FIG. 8G—compare 4th and 5th bars).
as §3, with “#16140-071). Hepatic stellate cells (HSCs) were isolated from 5-6 mo/o BALB/C mice as described previously (Mederacke et al., 2015).” for “#16140-071).”, “F7953). […]” for “F7953).”

## Inclisiran
PCSK9
  toxicity profile: very low toxicity profiles

## 5′-CACCAcagcegaatctcgcaatgaatCTCGAGATTCATTGCGAG ATTCGGCTG-3′ (DNA CACCACAGCCGAATCTCGCAATGAATCTCGAGATTCATTGCGAGATTCGGCTG; expressed or natural sequence) [AAV8-shTaz, AAV8-shRNA targeting murine Taz; annealed oligonucleotides ligated into the pAAV-RSV-GFP-H1 vector]
TAZ [1]
  hepatic fibrosis: decreased
  hepatic inflammation: decreased
  macrophages in the liver: reduced
  steatosis: without impacting
  α-SMA+ cells in the liver: reduced
TAZ [1]; liver
  inflammatory and fibrotic gene expression: reduced
TAZ [2]
  F4/80+ macrophages: marked reductions
  fibrosis endpoints (aniline blue- and Sirius red-positive areas): marked reductions; also recorded: reduced
  inflammatory cells: marked reductions; also recorded: reduced
  inflammatory- and fibrosis-related genes (Tnfa, Mcp1, Tgfb1, Acta2 mRNA): marked reductions; also recorded: reduced
  plasma ALT: marked reductions; also recorded: reduced
  α-SMA+ cells: marked reductions
TAZ [3]
  4-HNE+ liver cells: decrease
  TUNEL+ liver cells: decrease
  inflammatory cell infiltration in liver sections: marked reductions
  plasma ALT: decreased
  steatosis: not affected
TAZ [3]; immunoblot
  hepatic Ihh protein: suppressed
TAZ [3]; liver
  F4/80+ macrophages: decreases
  expression of mRNAs related to fibrosis (Acta2, Timp1, Des, Col1a1, Col1a2, Col3a1, Vim): robust reduction
  expression of mRNAs related to hepatic inflammation (Tnfa, Mcp1, F4/80 (Adgre1)): robust reduction
  α-SMA+ cells: decreases
TAZ [3]; vs AAV8-control RNA
  silencing of TAZ in liver (immunoblot): robust silencing
TAZ [3]; vs control group
  Mouse body weight: similar
  fasting blood glucose: similar
  liver:body weight ratio: similar
  plasma cholesterol: similar
  plasma insulin: similar
TAZ [3]; aniline blue, Sirius red
  fibrosis endpoints in liver sections: marked reductions
TAZ [4]
  hydroxyproline content of liver: lower; also recorded: reduced
  liver inflammation (hepatic inflammatory cells): decreased; also recorded: reduced
  plasma ALT: reduced
TAZ [4]; liver
  staining for Sirius red: decreased staining
  staining for aniline blue: decreased staining
  staining for α-SMA: decreased staining

## siTaz: siRNA against mouse Taz purchased from IDT; target sequence ACAUGGACGAGAUGGAUACAGGUGA (sense ACAUGGACGAGAUGGAUACAGGUGA; purchased from IDT, chemistry not given here; the letters are possibly those of the target site)
[5]
  Opn, Timp1 and Col1a1 mRNAs and protein in HSCs: lowered
Taz [6]
  cellular Ihh mRNA: lowered
Taz [6]; ELISA
  Ihh protein in the media: lowered
Taz [6]; immunoblot
  Ihh protein in the cells: lowered
